Data on eight compounds can be found in US20140079632A1, “ACTIVITY-BASED PROBES FOR THE UROKINASE P[…]” (UNIVERSITEIT ANTWERPEN, priority 2011, published 2014).

Holding throughout (assay type): biochemical
The target in assay [1] is T1, uPA (Homo sapiens, UniProt P00749).
T1 construct: purchased Nodia
Briefly: uPA inhibition: in vitro evaluation, IC50 with chromogenic substrate Biophen CS-61(44). The conditions noted are these: 15 min preincubation at 37° C.; Tris buffer pH 8.8; 250 μM substrate. Here is the method: Enzymatic activity was measured at 37° C. in a Spectramax 340 (Molecular Devices) microtiter plate reader using the chromogenic substrate Biophen CS-61(44) (LpyroGlu-Gly L-Arg-p-NA.HCl), with a Km of 80 μM.
The substrate and human enzyme were obtained from Nodia. The reaction was monitored at 405 nm, and the initial rate was determined between 0 and 0.25 absorbance units in 20 min. The reaction mixture contained 250 μM substrate and approximately 1 mU of enzyme in 145 μL of buffer in a final volume of 200 μL. A 50 mM Tris buffer, pH 8.8, was used. From each inhibitor concentration, 5 μL was added, obtaining a final concentration from 0 to 250 μM in a total volume of 0.2 mL. Activity measurements were routinely performed in duplicate. […] IC50 values were obtained by fitting the data with the four-parameter logistics equation using Grafit 5.
where s=slope factor, v=rate, I0=inhibitor concentration, and range=the fitted uninhibited value minus the background. The equation assumes the y falls with increasing x.
(§1) Inhibitor stock solutions were prepared in DMSO and stored at −20° C. Because the compounds described in this paper completely inactivate uPA following pseudofirst-order kinetics, the IC50 value is inversely correlated with the second-order rate constant of inactivation. For a simple pseudofirst-order inactivation process, the activity after incubation with inhibitor (vi) varies with the inhibitor concentration (i), as described in the following equation: […]

The target of assay [2] is T1, uPA. Briefly: uPA inactivation kinetics from progress curves (kobs versus inhibitor concentration, kapp). Particulars: 250 μM substrate, 37° C. The procedure:
as §1
where vo is the activity in absence of inhibitor, k is the second-order rate constant of inactivation, and t is the time. The inactivation rate constant was determined from the time course of inhibition.
The inhibitor was mixed with the substrate (250 μM final concentration), and the buffer solution with the enzyme was added at the time zero. The inhibitor concentrations were chosen to obtain total inhibition of the enzyme within 20 min. The progress curves show the absorbance of p-nitroanilide produced as a function of time. Initially, no inhibitor is bound to the enzyme, and the tangent to the progress curve (dA/dt) is proportional to the concentration of the free enzyme. The concentration of free enzyme decreases over time due to the kinetics of inhibitor binding, as described above. Progress curves were recorded in pseudofirst-order conditions ([I]0>>[E]0) and with less than 10% conversion of the substrate during the entire time course. In these conditions, dA/dt decreases exponentially with time. The progress curves were fitted with the integrated rate equation to yield a value for kobs, a pseudofirst-order rate constant
At=v0[1−e^−k^obs^t]/kobs+A0
where At=absorbance at time t, A0=absorbance at time zero, and v0=uninhibited initial rate.
The apparent second-order rate constant (kapp) was calculated from the slope of the linear part of the plot of kobs versus the inhibitor concentration ([I]0). In case of competition between the inhibitor and the substrate, kapp is smaller than the “real” second order rate constant k discussed above because a certain fraction of the enzyme is present as an enzyme-substrate complex. kapp depends on the substrate concentration used in the experiment, as described by Lambeir et al.^40 For most final compounds, the kobs versus [I]0 plot was not linear, but could be fitted with a hyperbolic function: kobs=k2[I]0/(K1+[I]0) (two step mechanism). Where K1 is the dissociation constant of the reversible enzyme-inhibitor complex and k2 is the first-order rate constant associated with irreversible modification of the enzyme. A kapp could be calculated as k2/K1.

Assay [3] concerns the target T2, thrombin (from human plasma) (Homo sapiens, UniProt P00734).
T2 construct: thrombin (from human plasma, Sigma); purchased Sigma; host or cells: human plasma
Briefly: Selectivity: thrombin inhibition, substrate Biophen CS-21(66). The conditions noted are these: 15 min preincubation; Tris buffer pH 8.3; 580 μM substrate. Here is the method:
(§2) The substrate and human enzyme were obtained from Nodia. The reaction was monitored at 405 nm, and the initial rate was determined between 0 and 0.25 absorbance units in 20 min. […] A 50 mM Tris buffer, pH 8.8, was used. From each inhibitor concentration, 5 μL was added, obtaining a final concentration from 0 to 250 μM in a total volume of 0.2 mL. Activity measurements were routinely performed in duplicate. […] IC50 values were obtained by fitting the data with the four-parameter logistics equation using Grafit 5.
(§3) The IC50 values for plasmin (from human plasma, Sigma), tPA (recombinant, Nodia), thrombin (from human plasma, Sigma), and FXa were determined in the same way as for uPA.
(§4) For tPA and thrombin, Tris buffer, pH 8.3, was used, for FXa, Tris buffer, pH 8.3, for plasmin, Tris buffer, pH 7.4, was used.

In assay [4] the target is T3, plasmin (from human plasma) (Homo sapiens, UniProt P00747).
T3 construct: purchased Sigma; host or cells: human plasma
Briefly: Selectivity: plasmin inhibition, substrate Biophen CS-21(66). The conditions noted are these: 15 min preincubation; Tris buffer pH 7.4; 580 μM substrate. The procedure:
as §2, §3, §4

A further assay has as its target T4, tPA (recombinant) (Homo sapiens, UniProt P00750).
T4 construct: purchased Nodia
Briefly: Selectivity: tPA inhibition, substrate Biophen CS-05(88). The conditions noted are these: for IC50: 15 min preincubation, Tris buffer pH 8.3, 1.25 mM substrate. Here is the method: as §2, §3, §4

The target of a further assay is FXa (Homo sapiens, UniProt P00742). The assay is described as follows: Selectivity: FXa inhibition, substrate Biophen CS-11(32). The conditions noted are these: for IC50: 15 min preincubation, Tris buffer pH 8.3, 522 μM substrate; for FXa % (I) @ 250: at 250 (μM).
The mark [5] stands for this setting: apparent second-order rate constant from slope of kobs versus [I]0, no asterisk.
Setting [6] is: asterisked: compound showed a two-step mechanism, kapp calculated as k2/K1.

FXa, sequence (P00742 235-488 limits assumed): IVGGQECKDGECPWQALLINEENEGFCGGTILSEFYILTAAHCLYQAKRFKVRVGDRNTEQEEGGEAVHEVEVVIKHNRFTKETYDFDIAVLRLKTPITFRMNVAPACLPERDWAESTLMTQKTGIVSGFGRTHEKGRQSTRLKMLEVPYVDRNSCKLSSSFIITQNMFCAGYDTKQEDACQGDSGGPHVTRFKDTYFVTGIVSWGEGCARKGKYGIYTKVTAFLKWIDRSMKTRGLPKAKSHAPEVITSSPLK
FXa, sequence (P00742 41-179 partner limits assumed): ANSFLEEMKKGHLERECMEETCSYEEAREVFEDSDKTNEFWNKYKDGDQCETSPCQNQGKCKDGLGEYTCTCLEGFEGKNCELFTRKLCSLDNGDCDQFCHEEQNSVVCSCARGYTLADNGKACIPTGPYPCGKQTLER
T4 sequence (P00750 36-562, species assumed): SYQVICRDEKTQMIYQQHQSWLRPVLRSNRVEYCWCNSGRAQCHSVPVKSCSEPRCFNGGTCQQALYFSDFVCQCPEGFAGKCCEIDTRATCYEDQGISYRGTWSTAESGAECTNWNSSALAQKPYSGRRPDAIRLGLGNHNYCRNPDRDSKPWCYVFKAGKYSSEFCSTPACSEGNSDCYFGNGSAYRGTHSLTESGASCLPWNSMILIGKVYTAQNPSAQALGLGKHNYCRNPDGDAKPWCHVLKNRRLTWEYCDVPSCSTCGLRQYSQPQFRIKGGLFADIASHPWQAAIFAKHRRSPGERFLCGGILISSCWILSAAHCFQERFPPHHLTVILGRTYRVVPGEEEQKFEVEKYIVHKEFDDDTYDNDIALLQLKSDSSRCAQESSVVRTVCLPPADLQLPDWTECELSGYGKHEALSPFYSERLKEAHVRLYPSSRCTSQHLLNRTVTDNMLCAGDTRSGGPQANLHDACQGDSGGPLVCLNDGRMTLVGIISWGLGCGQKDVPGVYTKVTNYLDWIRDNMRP
T3 sequence (P00747 581-810 limits assumed): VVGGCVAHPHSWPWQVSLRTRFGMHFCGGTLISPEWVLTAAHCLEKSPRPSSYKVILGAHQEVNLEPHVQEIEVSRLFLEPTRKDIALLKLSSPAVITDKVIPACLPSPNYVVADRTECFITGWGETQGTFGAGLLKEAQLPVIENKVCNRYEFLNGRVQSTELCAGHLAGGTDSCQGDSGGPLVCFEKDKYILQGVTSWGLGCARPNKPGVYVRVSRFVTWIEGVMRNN
T3 sequence (P00747 97-580 partner limits assumed): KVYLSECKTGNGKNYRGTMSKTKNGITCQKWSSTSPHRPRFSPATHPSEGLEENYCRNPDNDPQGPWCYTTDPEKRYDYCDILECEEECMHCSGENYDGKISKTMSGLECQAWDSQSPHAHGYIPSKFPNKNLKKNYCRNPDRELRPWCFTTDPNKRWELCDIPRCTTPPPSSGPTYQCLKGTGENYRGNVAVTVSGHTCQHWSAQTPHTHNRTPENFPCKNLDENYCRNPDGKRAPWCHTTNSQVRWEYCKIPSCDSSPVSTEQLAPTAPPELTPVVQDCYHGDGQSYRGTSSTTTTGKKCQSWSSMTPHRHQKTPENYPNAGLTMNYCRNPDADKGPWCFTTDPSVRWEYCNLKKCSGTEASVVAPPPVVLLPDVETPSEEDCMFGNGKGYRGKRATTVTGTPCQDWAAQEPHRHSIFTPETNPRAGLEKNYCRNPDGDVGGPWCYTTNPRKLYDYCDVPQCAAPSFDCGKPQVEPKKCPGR

The term IC50 denotes the concentration that gives 50% inhibition. With “2-((1E,3E,5E)-5-(1-(6-((2-(4-(3-(((1-(diphenoxyphosphoryl)-2-(4-guanidino phenyl)ethyl)carbamoyl)oxy)propyl)-1H-1,2,3-triazol-1-yl)ethyl)amino)-6-oxohexyl)-3,3-dimethyl indolin-2-ylidene)penta-1,3-dien-1-yl)-1,3,3-trimethyl-3H-indol-1-ium [Final compound 9]”, the IC50 was 0.0589 ± 0.0017 µM on uPA [1], over 2.5 µM in assay [3] and over 2.5 µM in assay [4]. In addition, the “uPA: kapp” value at uPA [2] (setting [5]) stood at 1600 ± 100 M⁻¹ s⁻¹.
For the compound `CCN(CC)c1ccc2c(-c3ccccc3C(=O)N3CCN(C(=O)CCCCCCCn4cc(COCCOC(=O)NC(Cc5ccc(NC(=N)N)cc5)P(=O)(Oc5ccccc5)Oc5ccccc5)nn4)CC3)c3ccc(=[N+](CC)CC)cc-3oc2c1.O=C(O)C(F)(F)F.[Cl-]` (stereo not drawn) [Final compound 1, 2,2,2-trifluoroacetic acid, N-(6-(diethylamino)-9-(2-(4-(8-(4-((2-(((1-(diphenoxyphosphoryl)-2-(4-guanidinophenyl)ethyl)carbamoyl)oxy)ethoxy)methyl)-1H-1,2,3-triazol-1-yl)octanoyl)piperazine-1-carbonyl)phenyl)-3H-xanthen-3-ylidene)-N-ethylethanaminium chloride], the IC50 amounted to 0.017 ± 0.002 µM at uPA [1], 7.9 ± 0.3 µM on tPA (recombinant), 7.9 ± 1.7 µM in assay [3] and 5.4 ± 0.6 µM in assay [4]. For the same compound, on uPA [2] (setting [5]), the “uPA: kapp” value was determined as 1700 ± 100 M⁻¹ s⁻¹. The “FXa % @ 2.5” value at FXa (at 2.5 (μM)) is 11% @ 2.5.
Consider `CCN(CC)c1ccc2c(-c3ccccc3C(=O)N3CCN(C(=O)CCCCCCCn4cc(COCCOCCOC(=O)NC(Cc5ccc(NC(=N)N)cc5)P(=O)(Oc5ccccc5)Oc5ccccc5)nn4)CC3)c3ccc(=[N+](CC)CC)cc-3oc2c1` (stereo not drawn) [Final compound 2, 2,2,2-trifluoroacetic acid, N-(6-(diethylamino)-9-(2-(4-(8-(4-(11-(diphenoxyphosphoryl)-12-(4-guanidinophenyl)-9-oxo-2,5,8-trioxa-10-azadodecyl)-1H-1,2,3-triazol-1-yl)octanoyl)piperazine-1-carbonyl)phenyl)-3H-xanthen-3-ylidene)-N-ethylethanaminium chloride], for which the IC50 came out at 0.019 ± 0.003 µM against uPA [1]; 33 ± 13 µM on tPA (recombinant); 24 ± 21 µM in assay [3]; 5.4 ± 1.6 µM in assay [4]; 176 ± 128 µM against FXa. Besides, the “uPA: kapp” value at uPA [2] (setting [5]) was 1300 ± 70 M⁻¹ s⁻¹.
`CCN(CC)c1ccc2c(-c3ccccc3C(=O)N3CCN(C(=O)CCCCCCCn4cc(COCCOCCOCCOC(=O)NC(Cc5ccc(NC(=N)N)cc5)P(=O)(Oc5ccccc5)Oc5ccccc5)nn4)CC3)c3ccc(=[N+](CC)CC)cc-3oc2c1` (stereo not drawn) [Final compound 3, 2,2,2-trifluoroacetic acid, N-(6-(diethylamino)-9-(2-(4-(8-(4-(14-(diphenoxyphosphoryl)-15-(4-guanidinophenyl)-12-oxo-2,5,8,11-tetraoxa-13-azapentadecyl)-1H-1,2,3-triazol-1-yl)octanoyl)piperazine-1-carbonyl)phenyl)-3H-xanthen-3-ylidene)-N-ethylethanaminium chloride]: the concentration for half-maximal inhibition (IC50) on uPA [1] is 0.03 ± 0.006 µM; at tPA (recombinant), 42 ± 5 µM; in assay [3], 13.8 ± 1.3 µM; in assay [4] it was 11 ± 4 µM; on FXa it was 39 ± 22 µM. Further, at uPA [2] (setting [5]), the “uPA: kapp” value was determined as 2600 ± 200 M⁻¹ s⁻¹.
On to `CCN(CC)c1ccc2c(-c3ccccc3C(=O)N3CCN(C(=O)CCCCCCCn4cc(CCCOC(=O)NC(Cc5ccc(NC(=N)N)cc5)P(=O)(Oc5ccccc5)Oc5ccccc5)nn4)CC3)c3ccc(=[N+](CC)CC)cc-3oc2c1.O=C(O)C(F)(F)F.[Cl-]` (stereo not drawn) [Final compound 4, 2,2,2-trifluoroacetic acid, N-(6-(diethylamino)-9-(2-(4-(8-(4-(3-(((1-(diphenoxyphosphoryl)-2-(4-guanidinophenyl)ethyl)carbamoyl)oxy)propyl)-1H-1,2,3-triazol-1-yl)octanoyl)piperazine-1-carbonyl)phenyl)-3H-xanthen-3-ylidene)-N-ethylethanaminium chloride], for which the IC50 at uPA [1] was 0.025 ± 0.007 µM; at tPA (recombinant), 8 ± 1 µM; in assay [3], 3.5 ± 0.8 µM; in assay [4] it was 4.6 ± 2.3 µM; on FXa it was 65 ± 14 µM. Moreover, the “uPA: kapp” value on uPA [2] (setting [5]) is 4900 ± 90 M⁻¹ s⁻¹.
Take `CCN(CC)c1ccc2c(-c3ccccc3C(=O)N3CCN(C(=O)CCCCCCCn4cc(CCCOC(=O)NC(Cc5ccc(NC(=N)N)cc5)P(=O)(Oc5ccc(NC(C)=O)cc5)Oc5ccc(NC(C)=O)cc5)nn4)CC3)c3ccc(=[N+](CC)CC)cc-3oc2c1.O=C(O)C(F)(F)F.[Cl-]` (stereo not drawn) [Final compound 5, 2,2,2-trifluoroacetic acid, N-(9-(2-(4-(8-(4-(3-(((1-(bis(4-acetamidophenoxy)phosphoryl)-2-(4-guanidinophenyl)ethyl)carbamoyl)oxy)propyl)-1H-1,2,3-triazol-1-yl)octanoyl)piperazine-1-carbonyl)phenyl)-6-(diethylamino)-3H-xanthen-3-ylidene)-N-ethylethanaminium chloride]: the half-inhibitory concentration (IC50) at uPA [1] was 0.022 ± 0.002 µM; at tPA (recombinant) it was over 62 µM; in assay [3], 5.2 ± 0.2 µM; in assay [4], 5.6 ± 1.5 µM. The “uPA: kapp” value on uPA [2] (setting [6]) is 52 × 10^2 ± 1 × 10^2 * M^−1 s^−1. Besides, the “FXa % (I) @ 250” value on FXa stood at 90% @ 250.
Turning to `CC1=CC(C)=[N+]2C1=C(CCCCCCCn1cc(CCCOC(=O)NC(Cc3ccc(NC(=N)N)cc3)P(=O)(Oc3ccccc3)Oc3ccccc3)nn1)c1c(C)cc(C)n1[B-]2(F)F.O=C(O)C(F)(F)F` (stereo not drawn) [Final compound 6, 10-(7-(4-(3-(((1-(diphenoxyphosphoryl)-2-(4-guanidinophenyl)ethyl)carbamoyl)oxy)propyl)-1-1,2,3-triazol-1-yl)heptyl)-5,5-difluoro-1,3,7,9-tetramethyl-5H-dipyrrolo[1,2-c:2′,1′-f][1,3,2]diazaborinin-4-ium-5-uide 2,2,2-trifluoroacetate], the values for the IC50 (against uPA [1]; in assay [3]; in assay [4]) were 0.0467 ± 0.0015 µM, about 125 µM and 0.674 ± 0.123 µM, respectively. On uPA [2] (setting [6]), the “uPA: kapp” value is 12.2 × 10^2 ± 0.5 × 10^2 * M^−1 s^−1. Besides, at tPA (recombinant) (at 250 (μM)), the “tPA % I @ 250” value is reported as 19% I @ 250. In addition, the “FXa % (I) @ 250” value on FXa amounted to 19% I @ 250 ^.
As to `O=C(O)C(F)(F)F.[N-]=[N+]=NCCOCCOCCOC(=O)NC(Cc1ccc(NC(=N)N)cc1)P(=O)(Oc1ccccc1)Oc1ccccc1` (stereo not drawn) [Intermediate 61, 2-(2-(2-azidoethoxy)ethoxy)ethyl 1-(diphenoxyphosphoryl)-2-(4-guanidinophenyl)ethylcarbamate 2,2,2-trifluoroacetate], the 50% inhibitory concentration (IC50) at uPA [1] turned out to be 0.015 ± 0.002 µM; in assay [3], 13 µM; in assay [4], 5.7 ± 0.6 µM. Further, on uPA [2] (setting [6]), the “uPA: kapp” value was 10 × 10^3 ± 4 × 10^3 * M^−1 s^−1. Further, at FXa, the “FXa % (I) @ 250” value turned out to be 51% @ 250.
